We go through ten compounds from PubChem BioAssay (NCI).

What is called TGI is the concentration at which net growth stops. Read a low TGI as more potent growth arrest. By GI50 is commonly meant the concentration that inhibits growth by half.

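Test compounds were applied to cells in 96-well plates for 48 hours at 5 doses. Abbreviation: GI50, concentration required for 50% inhibition of growth. Definition used: TGI = concentration required for complete inhibition of growth.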

Test systems include NCI-H226 lung; SK-MEL-2 melanoma; SNB-75 CNS; SF-268 CNS; IGROV1 ovarian; SF-295 CNS; TK-10 renal; A498 renal; SNB-19 CNS; U251 CNS.
Holding throughout (assay): DTP human tumour cell line panel, 48 h

Regarding `COC(=O)C(=O)C(C(=O)C(=O)Nc1cccc(C(C)=O)c1)c1nc2ccccc2[nH]c1=O` (configuration not stated), the TGI with NCI-H226 lung, in the experiment on SK-MEL-2 melanoma, in the experiment with SNB-75 CNS, with SF-268 CNS, with IGROV1 ovarian and in the experiment with SF-295 CNS was > 100 µM in each case. Also, the TGI in the experiment with TK-10 renal, with A498 renal and in the experiment on SNB-19 CNS was > 100 µM in each case.
For the compound `COc1cc(C(=O)Nc2cc3c(cc2Oc2cc(C)cc(C)c2)C(=O)N(C)[C@@H](CC(=O)N(C)O)C(=O)N3)c(Br)c(OC)c1OC`, the GI50 with NCI-H226 lung, with U251 CNS, in the experiment with SK-MEL-2 melanoma, in the experiment with SNB-75 CNS, in the experiment with SF-268 CNS and in the experiment with IGROV1 ovarian was < 0.00333 µM throughout. For the same compound, the GI50 in the experiment with SF-295 CNS is < 0.00333 µM; with TK-10 renal, 0.00526 µM; with A498 renal it was < 0.00333 µM; in the experiment on SNB-19 CNS it was < 0.00333 µM. For the same compound, the TGI in the experiment on NCI-H226 lung was 0.0128 µM; in the experiment on U251 CNS it was 0.00506 µM; in the experiment on SK-MEL-2 melanoma, < 0.00333 µM; in the experiment with SNB-75 CNS, < 0.00333 µM; in the experiment with SF-268 CNS, 0.0067 µM; in the experiment on IGROV1 ovarian, 0.0104 µM. Further, the TGI came to 0.00898 µM in the experiment on SF-295 CNS, 0.0264 µM in the experiment with TK-10 renal, 0.00573 µM with A498 renal and 0.00576 µM with SNB-19 CNS.
`COC(=O)C(CC(=O)Nc1ccc(C)cc1)C(=O)C(=O)Nc1ccccc1C(C)C` (configuration not stated): the TGI with NCI-H226 lung, in the experiment with U251 CNS, with SK-MEL-2 melanoma, in the experiment on SNB-75 CNS, with SF-268 CNS and in the experiment with IGROV1 ovarian was > 100 µM each time. In addition, the TGI with SF-295 CNS, with TK-10 renal, in the experiment with A498 renal and in the experiment with SNB-19 CNS was > 100 µM each time.
As for `CCOP(=O)(OCC)OC(C#N)c1ccc(-c2ccccc2)cc1` (configuration not stated), the TGI in the experiment on NCI-H226 lung is > 100 µM; in the experiment on U251 CNS, 28.9 µM; with SK-MEL-2 melanoma, > 100 µM; in the experiment on SNB-75 CNS, 64.6 µM; in the experiment on SF-268 CNS, 44.4 µM; in the experiment on IGROV1 ovarian it was > 100 µM. The TGI is > 100 µM in the experiment on SF-295 CNS, 89.2 µM in the experiment with TK-10 renal, 62.7 µM in the experiment with A498 renal and > 100 µM with SNB-19 CNS.
For the compound `CCOc1cccc(/C=N/NC(=O)C(=O)Nc2cccc(C(F)(F)F)c2)c1O`, the GI50 with NCI-H226 lung is 3.96 µM; in the experiment with U251 CNS, 1.46 µM; with SK-MEL-2 melanoma it was 5.3 µM; in the experiment on SNB-75 CNS, 5.38 µM; with SF-268 CNS, 1.24 µM; in the experiment on IGROV1 ovarian, 1.3 µM. Moreover, the GI50 with SF-295 CNS is 0.372 µM; with TK-10 renal it was 4.3 µM; with A498 renal, 8.85 µM; with SNB-19 CNS it was 2.48 µM. Further, the TGI was 50.1 µM in the experiment with NCI-H226 lung; > 100 µM in the experiment with U251 CNS; > 100 µM with SK-MEL-2 melanoma; 57.8 µM in the experiment on SNB-75 CNS; 97 µM in the experiment on SF-268 CNS; 25.8 µM with IGROV1 ovarian. For the same compound, the TGI in the experiment with SF-295 CNS is 7.97 µM; in the experiment on TK-10 renal, > 100 µM; in the experiment on A498 renal it was 76.2 µM; in the experiment on SNB-19 CNS it was > 100 µM.
For `Cc1cc(Cl)ccc1Nc1nc(C(F)(F)F)ccc1C(=O)N/N=C/c1ccc([N+](=O)[O-])cc1`, the GI50 in the experiment on NCI-H226 lung is 1.58 µM; in the experiment with U251 CNS, 0.953 µM; in the experiment on SK-MEL-2 melanoma, 1.92 µM; in the experiment with SNB-75 CNS it was 1.71 µM; with SF-268 CNS, 0.86 µM; in the experiment with IGROV1 ovarian, 2.21 µM. Besides, the GI50 is 1.55 µM with SF-295 CNS, 1.95 µM in the experiment on TK-10 renal, 1.41 µM with A498 renal and 3.61 µM in the experiment with SNB-19 CNS. The TGI with NCI-H226 lung turned out to be 4.27 µM; in the experiment on SK-MEL-2 melanoma, 8.5 µM; in the experiment on SNB-75 CNS it was 10 µM; with SF-268 CNS, 5.45 µM; in the experiment on IGROV1 ovarian, 12.9 µM; in the experiment on SF-295 CNS it was 5.71 µM. In addition, the TGI was 8.32 µM in the experiment on TK-10 renal, 7.1 µM with A498 renal and > 100 µM with SNB-19 CNS.
Regarding `O=c1cccc(C2CC(CO)C3CCCCN3C2)[nH]1` (configuration not stated), the TGI in the experiment with NCI-H226 lung, with U251 CNS, in the experiment with SK-MEL-2 melanoma, in the experiment on SNB-75 CNS, with SF-268 CNS and in the experiment with IGROV1 ovarian was > 100 µM each time. For the same compound, the total growth inhibition concentration (TGI) with SF-295 CNS, in the experiment with TK-10 renal, with A498 renal and with SNB-19 CNS was > 100 µM throughout.
Take `COC(=O)[C@]12CCC(C)[C@H](C)[C@H]1C1=CCC3[C@@]4(C)CC[C@H](OC(C)=O)C(C)(C)C4CC[C@@]3(C)C1(C)C(O)C2` (some centres not stated): the TGI in the experiment with NCI-H226 lung was 83.1 µM; in the experiment on U251 CNS, > 100 µM; with SK-MEL-2 melanoma it was > 100 µM; in the experiment on SNB-75 CNS, > 100 µM; with SF-268 CNS it was > 100 µM; in the experiment with IGROV1 ovarian, > 100 µM. Besides, the TGI in the experiment with SF-295 CNS, with TK-10 renal, in the experiment on A498 renal and with SNB-19 CNS was > 100 µM each time.
On to `Cc1sc2nc3c4ccccc4c(NCCCN(C)C)nn3c(=O)c2c1C`, for which the GI50 in the experiment on NCI-H226 lung was 5.26 µM; with U251 CNS, 6.66 µM; in the experiment on SK-MEL-2 melanoma, 20 µM; in the experiment with SNB-75 CNS, 3.46 µM; in the experiment on SF-268 CNS it was 9.66 µM; in the experiment on IGROV1 ovarian, 5.3 µM. Besides, the GI50 with SF-295 CNS was 8.25 µM; with TK-10 renal, 13.6 µM; in the experiment with A498 renal, 4.49 µM; with SNB-19 CNS, 15.9 µM. In addition, the TGI in the experiment with NCI-H226 lung came to 23.1 µM; in the experiment with U251 CNS, 20 µM; in the experiment on SK-MEL-2 melanoma, 39.7 µM; in the experiment on SNB-75 CNS, 16.4 µM; in the experiment on SF-268 CNS it was 24.1 µM; in the experiment on IGROV1 ovarian, 24.6 µM. The TGI with SF-295 CNS came to 26.5 µM; with TK-10 renal it was 28.9 µM; with A498 renal it was 20.2 µM; in the experiment with SNB-19 CNS it was 29.5 µM.
`C/C(=N\N(c1ccccc1)c1ccccc1)c1c(O)cc(C)oc1=O`: the TGI with NCI-H226 lung, with U251 CNS, with SK-MEL-2 melanoma, in the experiment on SNB-75 CNS, in the experiment on SF-268 CNS and with SF-295 CNS was > 100 µM each time. Moreover, the TGI in the experiment on TK-10 renal, in the experiment with A498 renal and with SNB-19 CNS was > 100 µM in each case.
